From patent publication US20210353648A1, “GRAPIPRANT UNIT DOSAGE FORMS” (Arrys Therapeutics, Inc., priority 2018, published 2021) come the findings set out here.

Molecules are shown by their SMILES.

A short description of the series: Phase 1 multiple ascending dose study of grapiprant tablets: urine pharmacokinetics. The series is classed as in vivo, human. The conditions noted are these: for CLR/Fu: mean; for AE / AE/Dose: urine; for AE / AE/Dose / CL renal: mean (SD); for CL renal: human, urine and serum. As to the method:
Urine pharmacokinetic parameters can be used to assess the amount of parent drug excreted unchanged in the urine. The urine pharmacokinetic parameters can be calculated under the assumption that the amount of grapiprant excreted unchanged in the urine over the dosing interval was at steady state on the last day of dosing for the 14 day and 17 day oral administration described herein. As used herein, the term “AE” refers to the amount of parent drug excreted from 0-12 hours post dose on day 14 or day 17, calculated by (Urine Grapiprant Concentration×Urine Volume). As used herein, the term “AE/Dose” refers to percent of Dose renally excreted unchanged on day 14 or day 17, calculated by (AE/Dose)×100. As used herein, the term “CLR” refers to renal clearance on day 14 or day 17, calculated by (AE/AUCτ). As used herein, the term “CLR/Fu” refers to renal clearance of unbound drug, calculated by (CLR/Fu), where the fraction of drug in the serum not bound to proteins (Fu) is determined from in vitro human serum protein binding data.
Serial urine samples for PK evaluations of grapiprant were collected on Day 14 for up to 48 hours postdose (Cohorts 1-3) or on Day 17 for up to 24 hours postdose (Cohorts 5 and 6).
Grapiprant was extracted from the urine by protein precipitation, and then analyzed by a validated LC/MS/MS method. The dynamic range of the assay was 1.00 to 600 μg/mL. The following parameters were calculated under the assumption that the amount of grapiprant excreted unchanged in the urine over the dosing interval was at steady state on the 14th day of dosing: amount of parent drug excreted (AE), percent of dose renally excreted unchanged (AE/dose), renal clearance (CLR), and renal clearance of unbound drug (CLR/Fu).

Where [1] appears, read: 50 mg BID (n = 8), after 14 days of multiple oral dosing, healthy adults.
[2] abbreviates: 150 mg BID (n = 9), after 14 days of multiple oral dosing, healthy adults.
Where [3] appears, read: 250 mg BID (Elderly) (n = 14), after 14 days of multiple oral dosing (Day 17).
Where [4] appears, read: 300 mg BID (n = 9), after 14 days of multiple oral dosing, healthy adults.

On to `CCc1nc2c(C)nc(C)cc2n1-c1ccc(CCNC(=O)NS(=O)(=O)c2ccc(C)cc2)cc1` [Grapiprant, N-((4-(2-ethyl-4,6-dimethyl-1H-imidazo[4,5-c]pyridin-1-yl)phenethyl)carbamoyl)-4-methylbenzenesulfonamide], for which, under setting [1], the CLR/Fu was 6120 mL/min, the AE was 10.6 (3.18) mg, the AE/Dose is 21.2 (6.37) % and the CL renal amounted to 56.3 mL/min. For the same compound, under setting [2], the CLR/Fu turned out to be 6000 mL/min, the AE is reported as 33.3 (11.2) mg, the AE/Dose is reported as 22.2 (7.48) % and the CL renal amounted to 55.2 mL/min. Further, under setting [3], the CLR/Fu stood at 2720 mL/min, the AE is 57.9 (18.7) mg, the AE/Dose is listed as 23.2 (7.48) % and the CL renal was 25 mL/min. Moreover, under setting [4], the CLR/Fu was 4840 mL/min, the AE is 82.4 (27.1) mg, the AE/Dose is listed as 27.5 (9.05) % and the CL renal came out at 44.5 mL/min. In addition, the “renal clearance corrected for protein binding compared with GFR” value (healthy and elderly subjects) is listed as “much greater than the glomerular filtration rate”.
